Molecular target: T1, PDE5A1 (Homo sapiens, UniProt O76074)
T1 construct: from tissue; host or cells: human platelets from fresh donor blood (10,000 x g supernatant of sonicated lysate)
Test: Inhibition of type 5 phosphodiesterase (PDE5) activity, modified SPA test with human platelet lysate
Assay type: biochemical
Conditions: 0.5 μM cGMP, read-out: PDE5A1 inhibitory values [measured as −log IC50 (mol/l)] (converted)
In short: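 Scintillation proximity assay with [3H]cGMP tracer at 0.5 μM total cGMP, stopped after 15 min with beads containing IBMX. PDE3 and PDE2 activities suppressed with motapizone (1 μM) and a PDE2 inhibitor (10 nM). Human platelet supernatant served as the enzyme, with compound preincubated 5 min at 37° C; IC50 values from concentration-effect curves.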

SMILES	IC50 [nM]
COCC(=O)N1C[C@@H](O)[C@H](NC(=O)c2c(C)[nH]c3c(-c4c(OCC5CC5)ccc5c4OCO5)ncnc23)C1 (relative stereo) [Example E18, 4-[5-(Cyclopropylmethoxy)-1,3-benzodioxol-4-yl]-N-[(3R*,4R*)-4-hydroxy-1-(methoxyacetyl)pyrrolidin-3-yl]-6-methyl-5H-pyrrolo[3,2-d]pyrimidine-7-carboxamide]	< 1
CCOC(=O)N[C@H]1CC[C@H](NC(=O)c2c(C)[nH]c3c(-c4c(OCC5CC5)ccc5c4OCO5)ncnc23)CC1 [Example E8, Ethyl {trans-4-[({4-[5-(cyclopropylmethoxy)-1,3-benzodioxol-4-yl]-6-methyl-5H-pyrrolo[3,2-d]pyrimidin-7-yl}carbonyl)amino]cyclohexyl}carbamate]	< 1
CCC(=O)N[C@H]1CC[C@H](NC(=O)c2c(C)[nH]c3c(-c4c(OCC5CC5)ccc5c4OCO5)ncnc23)CC1 [Example E6, 4-[5-(Cyclopropylmethoxy)-1,3-benzodioxol-4-yl]-6-methyl-N-[trans-4-(propionylamino)cyclohexyl]-5H-pyrrolo[3,2-d]pyrimidine-7-carboxamide]	< 1
COc1ccc(-c2ncnc3c(C(=O)N[C@H]4CC[C@@H](NC(C)=O)CC4)c(C)[nH]c23)c(OCC2CC2)c1 [Example E59, N-(cis-4-acetamidocyclohexyl)-4-[2-(cyclopropylmethoxy)-4-methoxyphenyl]-6-methyl-5H-pyrrolo[3,2-d]pyrimidine-7-carboxamide]	< 1
COc1cc(-c2nc(C)nc3c(C(=O)NC4CCN(C(C)=O)CC4)c(C)[nH]c23)c(OCC2CC2)cc1F [Example E173, N-(1-Acetylpiperidin-4-yl)-4-[2-(cyclopropylmethoxy)-4-fluoro-5-methoxyphenyl]-2,6-dimethyl-5H-pyrrolo[3,2-d]pyrimidine-7-carboxamide]	< 1
CCC(=O)N1CC[C@@H](NC(=O)c2c(C)[nH]c3c(-c4ccc(F)cc4OCC4CC4)ncnc23)C1 [Example E29, 4-[2-(Cyclopropylmethoxy)-4-fluorophenyl]-6-methyl-N-[(3R)-1-propanoylpyrrolidin-3-yl]-5H-pyrrolo[3,2-d]pyrimidine-7-carboxamide]	< 1
CCC(=O)N1C[C@@H](O)[C@H](NC(=O)c2c(C)[nH]c3c(-c4ccc(F)cc4OCC4CC4)ncnc23)C1 (relative stereo) [Example E32, 4-[2-(Cyclopropylmethoxy)-4-fluorophenyl]-N-[(3R*,4R*)-4-hydroxy-1-propanoylpyrrolidin-3-yl]-6-methyl-5H-pyrrolo[3,2-d]pyrimidine-7-carboxamide]	1 to 10
COCC(=O)N1CC[C@@H](NC(=O)c2c(C)[nH]c3c(-c4cc(OC)c(F)cc4OCC4CC4)ncnc23)C1 [Example E181, 4-[2-(Cyclopropylmethoxy)-4-fluoro-5-methoxyphenyl]-N-[(3R)-1-(methoxyacetyl)pyrrolidin-3-yl]-6-methyl-5H-pyrrolo[3,2-d]pyrimidine-7-carboxamide]	< 1
CC(=O)N[C@H]1CC[C@H](NC(=O)c2c(C)[nH]c3c(-c4cc(C)c(F)cc4OCC4CC4)ncnc23)CC1 [Example E122, N-[trans-4-(Acetylamino)cyclohexyl]-4-[2-(cyclopropylmethoxy)-4-fluoro-5-methylphenyl]-6-methyl-5H-pyrrolo[3,2-d]pyrimidine-7-carboxamide]	< 1
CCC(=O)N1C[C@@H](O)[C@H](NC(=O)c2c(C)[nH]c3c(-c4c(OCC5CC5)ccc5c4OCO5)ncnc23)C1 (relative stereo) [Example E17, 4-[5-(Cyclopropylmethoxy)-1,3-benzodioxol-4-yl]-N-[(3R*,4R*)-4-hydroxy-1-propionylpyrrolidin-3-yl]-6-methyl-5H-pyrrolo[3,2-d]pyrimidine-7-carboxamide]	< 1
COCC(=O)N1CC[C@@H](NC(=O)c2c(C)[nH]c3c(-c4cc(C)c(F)cc4OCC4CC4)ncnc23)[C@H](O)C1 (relative stereo) [Example E130, 4-[2-(Cyclopropylmethoxy)-4-fluoro-5-methylphenyl]-N-[(3R*,4R*)-3-hydroxy-1-(methoxyacetyl)piperidin-4-yl]-6-methyl-5H-pyrrolo[3,2-d]pyrimidine-7-carboxamide]	< 1
CCC(=O)N1CC[C@@H](NC(=O)c2c(C)[nH]c3c(-c4ccc(OC)cc4OCC4CC4)ncnc23)C1 [Example E61, 4-[2-(Cyclopropylmethoxy)-4-methoxyphenyl]-6-methyl-N-[(3R)-1-propionylpyrrolidin-3-yl]-5H-pyrrolo[3,2-d]pyrimidine-7-carboxamide]	< 1
COc1cc(-c2ncnc3c(C(=O)N[C@@H]4CCN(C(C)=O)C[C@H]4O)c(C)[nH]c23)c(OCC2CC2)cc1F (relative stereo) [Example E113, N-[(3R*,4R*)-1-Acetyl-3-hydroxypiperidin-4-yl]-4-[2-(cyclopropylmethoxy)-4-fluoro-5-methoxyphenyl]-6-methyl-5H-pyrrolo[3,2-d]pyrimidine-7-carboxamide]	< 1

Next, values leading:

IC50 [nM]	SMILES
< 1	Cc1[nH]c2c(-c3c(OCC4CC4)ccc4c3OCO4)ncnc2c1C(=O)N[C@H]1CC[C@@H](NC(=O)[C@H](C)O)CC1 [Example F6, 4-[5-(Cyclopropylmethoxy)-1,3-benzodioxol-4-yl]-N-(cis-4-{[(2S)-2-hydroxypropanoyl]amino}cyclohexyl)-6-methyl-5H-pyrrolo[3,2-d]pyrimidine-7-carboxamide]
< 1	COc1cc(OCC2CC2)c(-c2ncnc3c(C(=O)N[C@H]4CC[C@@H](NC(=O)CO)CC4)c(C)[nH]c23)cc1F [Example F87, 4-[2-(Cyclopropylmethoxy)-5-fluoro-4-methoxyphenyl]-N-[cis-4-(glycoloylamino)cyclohexyl]-6-methyl-5H-pyrrolo[3,2-d]pyrimidine-7-carboxamide]
< 1	Cc1[nH]c2c(-c3c(OCC4CC4)ccc4c3OCO4)ncnc2c1C(=O)N[C@@H]1CCN(C(=O)[C@H](C)O)C1 [Example F8, 4-[5-(Cyclopropylmethoxy)-1,3-benzodioxol-4-yl]-N-{(3R)-1-[(2S)-2-hydroxypropanoyl]pyrrolidin-3-yl}-6-methyl-5H-pyrrolo[3,2-d]pyrimidine-7-carboxamide]
< 1	COc1cc(-c2nc(C)nc3c(C(=O)NC4CCN(C(=O)CO)CC4)c(C)[nH]c23)c(OCC2CC2)cc1F [Example F109, 4-[2-(Cyclopropylmethoxy)-4-fluoro-5-methoxyphenyl]-N-[1-(hydroxyacetyl)piperidin-4-yl]-2,6-dimethyl-5H-pyrrolo[3,2-d]pyrimidine-7-carboxamide]
1 to 10	CCOc1ccc(F)cc1-c1ncnc2c(C(=O)NC3CCN(C(=O)[C@H](C)O)CC3)c(C)[nH]c12 [Example F33, 4-(2-Ethoxy-5-fluorophenyl)-N-{1-[(2S)-2-hydroxypropanoyl]piperidin-4-yl}-6-methyl-5H-pyrrolo[3,2-d]pyrimidine-7-carboxamide]
< 1	Cc1[nH]c2c(-c3ccc(F)cc3OCC3CC3)ncnc2c1C(=O)N[C@H]1CC[C@@H](NC(=O)[C@H](C)O)CC1 [Example F16, 4-[2-(Cyclopropylmethoxy)-4-fluorophenyl]-N-(cis-4-{[(2S)-2-hydroxypropanoyl]amino}cyclohexyl)-6-methyl-5H-pyrrolo[3,2-d]pyrimidine-7-carboxamide]
< 1	COc1cc(-c2ncnc3c(C(=O)N[C@H]4CC[C@H](NC(=O)CO)CC4)c(C)[nH]c23)c(OCC2CC2)cc1F [Example F67, 4-[2-(Cyclopropylmethoxy)-4-fluoro-5-methoxyphenyl]-N-[trans-4-(glycoloylamino)cyclohexyl]-6-methyl-5H-pyrrolo[3,2-d]pyrimidine-7-carboxamide]
< 1	COc1cc(OCC2CC2)c(-c2ncnc3c(C(=O)N[C@@H]4CN(C(=O)[C@H](C)O)C[C@H]4O)c(C)[nH]c23)cc1F (relative stereo) [Example F118, 4-[2-(Cyclopropylmethoxy)-5-fluoro-4-methoxyphenyl]-N-{(3R*,4R*)-4-hydroxy-1-[(2S)-2-hydroxypropanoyl]pyrrolidin-3-yl}-6-methyl-5H-pyrrolo[3,2-d]pyrimidine-7-carboxamide]
< 1	Cc1[nH]c2c(-c3c(OCC4CC4)ccc4c3OCO4)ncnc2c1C(=O)NC1CN(C(=O)C(C)O)CC1O (mixture of isomers) [Example F10, Diastereomeric mixture of 4-[5-(Cyclopropylmethoxy)-1,3-benzodioxol-4-yl]-N-{(3R,4R)-4-hydroxy-1-[(2S)-2-hydroxypropanoyl]pyrrolidin-3-yl}-6-methyl-5H-pyrrolo[3,2-d]pyrimidine-7-carboxamide and 4-[5-(cyclopropylmethoxy)-1,3-benzodioxol-4-yl]N-{(3S,4S)-4-hydroxy-1-[(2S)-2-hydroxypropanoyl]pyrrolidin-3-yl}-6-methyl-5H-pyrrolo[3,2-d]pyrimidine-7-carboxamide]
< 1	COc1ccc(-c2ncnc3c(C(=O)N[C@@H]4CN(C(=O)CO)C[C@H]4O)c(C)[nH]c23)c(OCC2CC2)c1 (relative stereo) [Example F39, 4-[2-(Cyclopropylmethoxy)-4-methoxyphenyl]-N-[(3R*,4R*)-1-glycoloyl-4-hydroxypyrrolidin-3-yl]-6-methyl-5H-pyrrolo[3,2-d]pyrimidine-7-carboxamide]
< 1	COc1cc(-c2ncnc3c(C(=O)N[C@H]4CC[C@@H](NC(=O)[C@H](C)O)CC4)c(C)[nH]c23)c(OCC2CC2)cc1F [Example F70, 4-[2-(Cyclopropylmethoxy)-4-fluoro-5-methoxyphenyl]-N-(cis-4-{[(2S)-2-hydroxypropanoyl]amino}cyclohexyl)-6-methyl-5H-pyrrolo[3,2-d]pyrimidine-7-carboxamide]

From patent publication US9376442B2, “Methylpyrrolopyrimidinecarboxamides” (Takeda GmbH, priority 2009, dated 2016)
